Source: ChEMBL document CHEMBL5252560 (Bioorg Med Chem Lett, 2023)
Calls of active or inactive are those of the source. No cut-off for these calls is given here.

Columns and labels:
[1] = biological target: T1, Tubulin (Homo sapiens) (UniProt P68371+Q9H4B7+P0DPH7+P68366+Q13509+Q71U36+P04350+Q3ZCM7+P07437+P68363+Q9BQE3+Q6PEY2+Q13885+Q9BVA1+Q9BUF5); assay: Inhibition of tubulin (unknown origin) polymerization assessed as reduction in fluorescence intensity at 4 uM; assay type: protein-complex assay
[2] = test system: HepG2; assay: Induction of cell cycle arrest in human HepG2 cells assessed as accumulation of cells at G1 phase at 50 nM incubated for 24 hrs by propidium iodide staining based flow cytometric analysis (reference value: 62.58%); assay type: functional
[3] = test system: HepG2; assay: Induction of cell cycle arrest in human HepG2 cells assessed as accumulation of cells at G1 phase at 100 nM by propidium iodide staining based flow cytometric analysis (reference value: 72.08 %); assay type: functional
[4] = test system: HepG2; assay: Inhibition of cell invasion in human HepG2 cells by transwell invasion assay; assay type: functional, cell-based; conditions: dose 25-100 nM
[5] = test system: HepG2; assay: Induction of cell cycle arrest in human HepG2 cells assessed as accumulation of cells at S phase at 50 nM incubated for 12 hrs by propidium iodide staining based flow cytometric analysis (reference value: 22.36%); assay type: functional
[6] = test system: U-937; assay: Antiproliferative activity against human U-937 cells assessed as cell growth inhibition; assay type: functional, cell-based
[7] = test system: HepG2; assay: Induction of cell cycle arrest in human HepG2 cells assessed as accumulation of cells at G1 phase at 50 nM incubated for 6 hrs by propidium iodide staining based flow cytometric analysis (reference value: 62.58%); assay type: functional
[8] = test system: HepG2; assay: Antiproliferative activity against human HepG2 cells assessed as cell growth inhibition; assay type: functional, cell-based
[9] = test system: HepG2; assay: Induction of cell cycle arrest in human HepG2 cells assessed as accumulation of cells at S phase at 100 nM by propidium iodide staining based flow cytometric analysis (reference value: 19.34%); assay type: functional
[10] = test system: HepG2; assay: Induction of cell cycle arrest in human HepG2 cells assessed as accumulation of cells at G2 phase at 50 nM incubated for 12 hrs by propidium iodide staining based flow cytometric analysis (reference value: 15.06%); assay type: functional
[11] = test system: HepG2; assay: Induction of cell cycle arrest in human HepG2 cells assessed as accumulation of cells at G1 phase at 50 nM by propidium iodide staining based flow cytometric analysis (reference value: 72.08 %); assay type: functional
[12] = test system: HepG2; assay: Induction of cell cycle arrest in human HepG2 cells assessed as accumulation of cells at G1 phase at 25 nM by propidium iodide staining based flow cytometric analysis (reference value: 72.08 %); assay type: functional
[13] = test system: HepG2; assay: Induction of cell cycle arrest in human HepG2 cells assessed as accumulation of cells at G1 phase at 50 nM incubated for 12 hrs by propidium iodide staining based flow cytometric analysis (reference value: 62.58%); assay type: functional
[14] = test system: HepG2; assay: Induction of cell cycle arrest in human HepG2 cells assessed as accumulation of cells at G2 phase at 100 nM by propidium iodide staining based flow cytometric analysis (reference value: 8.58%); assay type: functional
[15] = biological target: T1, Tubulin (Homo sapiens); assay: Disruption of microtubule assembly in human HepG2 cells assessed as changes in cell morphology at 100 nM by immunofluorescence analysis; assay type: cell-based
[16] = test system: HepG2; assay: Inhibition of cell migration in human HepG2 cells at 25 to 100 nM incubated for 48 hrs by wound healing assay; assay type: functional, cell-based; conditions: dose 25-100 nM
[17] = biological target: T1, Tubulin (Homo sapiens); assay: Disruption of microtubule assembly in human HepG2 cells assessed as loss of microtubule structure at 100 nM by immunofluorescence analysis; assay type: cell-based
[18] = test system: A549; assay: Antiproliferative activity against human A549 cells assessed as cell growth inhibition; assay type: functional, cell-based
[19] = test system: HepG2; assay: Induction of cell cycle arrest in human HepG2 cells assessed as accumulation of cells at G2 phase at 50 nM incubated for 6 hrs by propidium iodide staining based flow cytometric analysis (reference value: 15.06%); assay type: functional
[20] = test system: Y79; assay: Antiproliferative activity against human Y79 cells assessed as cell growth inhibition; assay type: functional, cell-based
[21] = test system: HepG2; assay: Induction of cell cycle arrest in human HepG2 cells assessed as accumulation of cells at S phase at 50 nM incubated for 24 hrs by propidium iodide staining based flow cytometric analysis (reference value: 22.36%); assay type: functional
[22] = test system: HepG2; assay: Induction of cell cycle arrest in human HepG2 cells assessed as accumulation of cells at S phase at 50 nM incubated for 6 hrs by propidium iodide staining based flow cytometric analysis (reference value: 22.36%); assay type: functional
[23] = test system: HepG2; assay: Induction of cell cycle arrest in human HepG2 cells assessed as accumulation of cells at S phase at 25 nM by propidium iodide staining based flow cytometric analysis (reference value: 19.34%); assay type: functional
[24] = test system: HepG2; assay: Induction of cell cycle arrest in human HepG2 cells assessed as accumulation of cells at G2 phase at 50 nM by propidium iodide staining based flow cytometric analysis (reference value: 8.58%); assay type: functional
[25] = test system: HepG2; assay: Induction of apoptosis in human HepG2 cells by AnnexinV-FITC/PI-staining based flow cytometry; assay type: functional, cell-based; conditions: dose 25-100 nM
[26] = test system: HepG2; assay: Induction of cell cycle arrest in human HepG2 cells assessed as accumulation of cells at G2 phase at 50 nM incubated for 24 hrs by propidium iodide staining based flow cytometric analysis (reference value: 15.06%); assay type: functional
[27] = test system: HepG2; assay: Induction of cell cycle arrest in human HepG2 cells assessed as accumulation of cells at G2 phase at 25 nM by propidium iodide staining based flow cytometric analysis (reference value: 8.58%); assay type: functional
[28] = test system: HepG2; assay: Induction of cell cycle arrest in human HepG2 cells assessed as accumulation of cells at S phase at 50 nM by propidium iodide staining based flow cytometric analysis (reference value: 19.34%); assay type: functional

With `COc1cc(C(/C=C/c2ccc3[nH]ccc3c2)=N/O)cc(OC)c1OC` as the molecule, how does the inhibition [1] read?
Its inhibition is “Active”.

What about the Activity [2] of the same molecule?
The Activity was 60.13%.

And the Activity [3]?
The Activity was 6%.

And the inhibition [4]?
Its inhibition is “Dose-Dependent Effect”.

And the Activity [5]?
The Activity was 17.79%.

What about the IC50 [6] of the same molecule?
The IC50 was 138 nM.

What about the Activity [7] of the same molecule?
The Activity was 63.46%.

And the IC50 [8]?
Its IC50 is 65 nM.

What about the Activity [9] of the same molecule?
The Activity was 23.61%.

And the Activity [10]?
The Activity was 25.73%.

And the Activity [11]?
Its Activity is 56.33%.

And the Activity [12]?
The Activity was 71.68%.

What about the Activity [13] of the same molecule?
Its Activity is 56.18%.

And the Activity [14]?
The Activity was 70.39%.

What about the Activity [15] of the same molecule?
The Activity was “Active”.

And the inhibition [16]?
Its inhibition is “Active”.

What about the Activity [17] of the same molecule?
Its Activity is “Active”.

And the IC50 [18]?
The IC50 was 271 nM.

What about the Activity [19] of the same molecule?
The Activity was 17.98%.

What about the IC50 [20] of the same molecule?
The IC50 was 251 nM.

What about the Activity [21] of the same molecule?
Its Activity is 26.95%.

And the Activity [22]?
Its Activity is 18.56%.

And the Activity [23]?
Its Activity is 4.78%.

And the Activity [24]?
The Activity was 38.86%.

What about the Activity [25] of the same molecule?
Its Activity is “Dose-Dependent Effect”.

And the Activity [26]?
The Activity was 26.95%.

What about the Activity [27] of the same molecule?
The Activity was 23.54%.

And the Activity [28]?
Its Activity is 4.81%.
